Test results published in patent US20260109725A1, “MACROLIDE SENOLYTIC COMPOUNDS” (LUNELLA BIOTECH, INC., priority 2022, published 2026).
Values after ≈ are worked out from the molar mass of the structure shown.

Assays:
[1] = system: MRC-5 cells treated with BrdU (senescent fibroblasts); test: SRB assay, BrdU-treated (senescent) MRC-5 cells; assay type: cell-based, human
Protocol: (§1) For example, in one assay bromodeoxyuridine (5-bromo-2′-deoxyuridine), also known as BrdU, was used to induce senescence in a cell population. BrdU is an analog of the nucleoside thymidine commonly used to identify proliferating cells. BrdU induces controlled DNA damage, and drives cells towards senescence with high efficiency. In the BrdU assay, normal fibroblasts are subjected to prolonged culture (8-days) in the presence of BrdU at 100 μM to induce controlled DNA-damage and senescence. […] Senolytic activity was assessed using the sulforhodamine B assay, also known in the art as the SRB assay. This assay measures the amount of protein remaining attached to the tissue-culture dishes, and is a surrogate marker for cell viability.
(§2) FIG. 1 compares SRB assay results for different concentrations of Azithromycin (100 µM and 50 μM) and Compound [I] (100 μM and 50 μM) of the present approach, on both control MRC-5 cells and MRC-5 cells treated with BrdU. […] (labelled as “Azi-Gal” in FIG. 1) for another 5 days. After that, the SRB assay was performed to determine the effects of the drug on cell viability, using normal MRC-5 cells as the control. […] However, at 50 μM Azithromycin had no effect on either the control cells or senescent cells.
(§3) BrdU Assay: Cells were plated into 24-well plates. Next day, half of the plate was treated with 100 μM of BrdU while control wells were treated with vehicle only (DMSO) and incubated for 8 days at 37° C. in a 5% CO2 humidified atmosphere. After 8 days of BrdU treatment cells were treated with various test compounds or drugs (e.g., azithromycin, roxithromycin, telithromycin, erythromycin, etc.) for another 3-5 days. BrdU or vehicle treatments were continued during the drug treatments as well.
(§4) Sulphorhodamine B assay: After the incubation of the plates cell viability was measured by Sulphorhodamine B assay (SRB). The assay is based on the measurement of cellular protein contents. Cells were fixed with 10% Trichloroacetic acid (TCA) for 1 hour at […], and were dried overnight at room temperature. Then, plates were incubated with SRB for 30 min, washed twice with 1% acetic acid and air dried for at least 1 h. Finally, the protein-bound dye was dissolved in a 10 mM Tris, pH 8.8, solution and read using a plate reader at 540-nm.

[2] = system: control MRC-5 cells (normal lung fibroblasts); test: SRB assay, control (normal) MRC-5 cells; assay type: cell-based, human
Protocol: as §1, §2, §3, §4

[3] = system: Acinetobacter baumannii ATCC 17978; test: in vitro broth microdilution assay (MIC); assay type: cell-based; conditions: ATCC17978
Protocol: (§5) This is advantageous because use of the compounds of the present approach as therapeutic agents will have less of an impact on the development of antibiotic resistance. For example, embodiments of the present approach were screened for antibiotic activity, using the in vitro broth microdilution assay. […] The assay conditions, described by the Clinical and Laboratory Standards Institute were used for preparation of the inoculum, growth medium, and end point reading. Test substance was dissolved in 100% DMSO, suspended completely by vortexing, diluted by 2-fold serial titrations in the same vehicle, for a total of 11 test concentrations. A 4 μL aliquot of each dilution was added to 196 μL of broth medium seeded with the organism suspension in wells of a 96 well plate (bacterial count: 2-8×10(5) colony forming units/mL final). The final volume was 200 μL in each well and the final DMSO concentration was 2 percent. Test concentrations were 0.1 to 100 μM. Following incubation, the test plates were visually examined and wells were scored for growth or complete growth inhibition to define the minimum inhibitory concentration. Each test substance was evaluated with replicates. Vehicle controls and an active reference agent were used as blank and positive controls. Note that MRSA represents methicillin-resistant Staphylococcus aureus, and VRE represents vancomycin resistant Enterococcus.

[4] = system: Enterococcus faecalis ATCC 29212; test: in vitro broth microdilution assay (MIC); assay type: cell-based; conditions: ATCC29212; Enterococcus faecalis ATCC 29212, QC strain
Protocol: as §5

[5] = system: Enterococcus faecium ATCC 700221 VanA VRE; test: in vitro broth microdilution assay (MIC); assay type: cell-based
Protocol: as §5

[6] = system: Escherichia coli ATCC 25922; test: in vitro broth microdilution assay (MIC); assay type: cell-based; conditions: ATCC25922; Escherichia coli ATCC 25922, QC strain
Protocol: as §5

[7] = system: Escherichia coli JW5503 DEL-tolC; test: in vitro broth microdilution assay (MIC); assay type: cell-based; conditions: JW5503DELTOLC
Protocol: as §5

[8] = system: Haemophilus influenzae ATCC 49247; test: in vitro broth microdilution assay (MIC); assay type: cell-based; conditions: ATCC49247; Haemophilus influenzae ATCC 49247, QC strain
Protocol: as §5

[9] = system: Klebsiella pneumoniae ATCC 43816; test: in vitro broth microdilution assay (MIC); assay type: cell-based; conditions: ATCC43816
Protocol: as §5

[10] = system: Pseudomonas aeruginosa ATCC 27853; test: in vitro broth microdilution assay (MIC); assay type: cell-based; conditions: ATCC27853; Pseudomonas aeruginosa ATCC 27853, QC strain
Protocol: as §5

[11] = system: Staphylococcus aureus ATCC 29213; test: in vitro broth microdilution assay (MIC); assay type: cell-based; conditions: ATCC29213; Staphylococcus aureus ATCC 29213, QC strain
Protocol: as §5

[12] = system: Staphylococcus aureus ATCC 33591 MRSA; test: in vitro broth microdilution assay (MIC); assay type: cell-based
Protocol: as §5

[13] = system: Streptococcus pneumoniae ATCC 49619; test: in vitro broth microdilution assay (MIC); assay type: cell-based; conditions: ATCC49619; Streptococcus pneumoniae ATCC 49619, QC strain
Protocol: as §5

[14] = system: MCF-7 cells; test: mammosphere formation assay (3D anchorage independent growth); assay type: cell-based, human
Protocol: The compounds disclosed herein may also be used as therapeutic agent to selectively eradicate CSCs for treating and/or preventing tumor recurrence and/or metastasis. […] This assay measures the amount of residual protein that adheres to tissue culture dishes and is a surrogate marker of cell viability.
3D Anchorage Independent Growth Assay: This assay is also referred to as the mammosphere formation assay. A single-cell suspension was prepared using enzymatic, and manual disaggregation (25-g needle). Then, cells were plated at a density of 500 cells/cm^2 in mammosphere medium (DMEM-F12+1X B-27 Plus Supplement+20 ng/ml EGF+Pen/Strep) under non-adherent conditions, in culture dishes pre-coated with (2-hydroxyethylmethacrylate) (poly-HEMA, Sigma Aldrich Inc.), called “mammosphere plates.” Cells were grown for 5 days and maintained in a humidified incubator at 37° C. After 5 days of culture, 3D-mammospheres >50 μm were counted using an eye piece (“graticule”), and the percentage of cells plated which formed spheres was calculated and is referred to as percent mammosphere formation, and was normalized to one (1=100% MFE). 3D mammosphere formation efficiency (MFE) was analyzed in both the ATP-low and ATP-high sub-populations of cells. All 3D mammosphere experiments were performed in triplicate, at least 3 times independently.

[15] = SRB, control vs BrdU-treated MRC5

With `CC[C@H]1OC(=O)[C@H](C)[C@@H](O[C@@H]2C[C@@](C)(OC)[C@@H](O)[C@H](C)O2)[C@H](C)[C@@H](O[C@@H]2O[C@H](C)C[C@H](N(C)C)[C@H]2OC(=O)CCC(=O)OCc2ccc(O[C@@H]3O[C@H](COC(C)=O)[C@H](OC(C)=O)[C@H](OC(C)=O)[C@H]3OC(C)=O)c([N+](=O)[O-])c2)[C@](C)(O)C[C@@H](C)CN(C)[C@H](C)[C@@H](O)[C@]1(C)O` [Compound [III], O4-[(2S,3R,4S,6R)-4-(dimethylamino)-2-[[(2R,3S,4R,5R,8R,10R,11R,12S,13S,14R)-2-ethyl-3,4,10-trihydroxy-13-[(2S,4R,5S,6S)-5-hydroxy-4-methoxy-4,6-dimethyl-tetrahydropyran-2-yl]oxy-3,5,6,8,10,12,14-heptamethyl-15-oxo-1-oxa-6-azacyclopentadec-11-yl]oxy]-6-methyl-tetrahydropyran-3-yl] O1-[[3-nitro-4-[(2S,3R,4S,5S,6R)-3,4,5-triacetoxy-6-(acetoxymethyl)tetrahydropyran-2-yl]oxy-phenyl]methyl]butanedioate] the “potency relative to the parent compound, Azithromycin (SRB)” value [1, 15] was “about half” and the “senolytic activity compared to Azithromycin and Compound [I]” value [1, 15] was “significantly less senolytic activity”.
In the case of `CC[C@H]1OC(=O)[C@H](C)[C@@H](O[C@@H]2C[C@@](C)(OC)[C@@H](O)[C@H](C)O2)[C@H](C)[C@@H](O[C@@H]2O[C@H](C)C[C@H](N(C)C)[C@H]2OC(=O)OCc2ccc(O[C@@H]3O[C@H](COC(C)=O)[C@H](OC(C)=O)[C@H](OC(C)=O)[C@H]3OC(C)=O)c([N+](=O)[O-])c2)[C@](C)(O)C[C@@H](C)C(=O)[C@H](C)[C@@H](O)[C@]1(C)O` [Compound [VI], 2R,3S,4S,5R,6S)-3,4,5-triacetoxy-6-[4-[[(2S,3R,4S,6R)-4-(dimethylamino)-2-[[(3R,4S,5S,6R,7R,9R,11R,12R,13S,14R)-14-ethyl-7,12,13-trihydroxy-4-[(2S,4R,5S,6S)-5-hydroxy-4-methoxy-4,6-dimethyl-tetrahydropyran-2-yl]oxy-3,5,7,9,11,13-hexamethyl-2,10-dioxo-oxacyclotetradec-6-yl]oxy]-6-methyl-tetrahydropyran-3-yl]oxycarbonyloxymethyl]-2-nitro-phenoxy]tetrahydropyran-2-yl]methyl acetate], the “preference for normal, non-senescent control cells (SRB)” value ([2]; compared to Roxithromycin and Erythromycin) is reported as “preference for the normal, non-senescent control cells” and the “effect on the senescent cells (SRB)” value ([1]; BrdU-treated MRC5) is reported as “little effect”.
In the case of `CC[C@H]1OC(=O)[C@H](C)[C@@H](O[C@@H]2C[C@@](C)(OC)[C@@H](O)[C@H](C)O2)[C@H](C)[C@@H](O[C@@H]2O[C@H](C)C[C@H](N(C)C(=O)OCc3ccc(O[C@@H]4O[C@H](COC(C)=O)[C@H](OC(C)=O)[C@H](OC(C)=O)[C@H]4OC(C)=O)c([N+](=O)[O-])c3)[C@H]2O)[C@](C)(O)C[C@@H](C)CN(C)[C@H](C)[C@@H](O)[C@]1(C)O` [Compound [IV], [(2R,3S,4S,5R,6S)-3,4,5-triacetoxy-6-[4-[[[(2S,3R,4S,6R)-2-[[(2R,3S,4R,5R,8R,10R,11R,12S,13S,14R)-2-ethyl-3,4,10-trihydroxy-13-[(2S,4R,5S,6S)-5-hydroxy-4-methoxy-4,6-dimethyl-tetrahydropyran-2-yl]oxy-3,5,6,8,10,12,14-heptamethyl-15-oxo-1-oxa-6-azacyclopentadec-11-yl]oxy]-3-hydroxy-6-methyl-tetrahydropyran-4-yl]-methyl-carbamoyl]oxymethyl]-2-nitro-phenoxy]tetrahydropyran-2-yl]methyl acetate], the “selectivity for senescent cells over normal, non-senescent cells (SRB)” value ([1]; control vs BrdU-treated MRC5) is reported as “no little selectivity”.
With `CC[C@H]1OC(=O)[C@H](C)[C@@H](O[C@H]2C[C@@](C)(OC)[C@@H](O)[C@H](C)O2)[C@H](C)[C@@H](O[C@@H]2O[C@H](C)C[C@H](N(C)C)[C@H]2O)[C@](C)(O)C[C@@H](C)CN(C)[C@H](C)[C@@H](O)[C@]1(C)O` [Azithromycin, reference compound] the MIC [3] was 6.25 µM (≈ 4.68 µg/mL), the MIC [4] was 6.25 µM (≈ 4.68 µg/mL) and the MIC [5] was > 100 µM. The MIC [6] was 6.25 µM (≈ 4.68 µg/mL), the MIC [7] was 1.56 µM (≈ 1.17 µg/mL) and the MIC [8] was 3.12 µM (≈ 2.34 µg/mL). The MIC [9] was 25 µM (≈ 18.7 µg/mL), the MIC [10] was 100 µM (≈ 74.9 µg/mL) and the MIC [11] was 1.56 µM (≈ 1.17 µg/mL). The MIC [12] was > 100 µM, the MIC [13] was 0.39 µM (≈ 0.292 µg/mL) and the “effect on control cells (SRB)” value ([2]; 50 μM, 5 days) was “no effect”. The “effect on viability of normal MRC-5 lung fibroblasts (SRB)” value ([2]; 100 μM, 5 days) was “no effect”, the “effect on senescent cells (SRB)” value ([1]; 50 μM, 5 days after 8 days BrdU) was “no effect” and the “effect on senescent MRC-5 fibroblasts (SRB)” value ([1]; 100 μM, 5 days after 8 days BrdU) was “selectively killed”. For the same compound, the “inhibition of MCF-7 cells compared to the control (mammosphere formation)” value ([14]; 200 μM) was “about 30%” and the IC50 ([14]; Homo sapiens, MCF7) was 118 µM.
